Laboratory results taken from article PMC7957392, “Yeast translation elongation factor eEF3 promotes late stages of tRNA translocation” (The EMBO Journal, 2021).

Molecular target: T1, eEF3 (C‐terminally TAP‐tagged, in native eEF3‐80S complex) (Saccharomyces cerevisiae, UniProt P16521)
T1 construct: gene YEF3; final 68 C-terminal residues including tag not modelled
T1 sequence (P16521 2-1044): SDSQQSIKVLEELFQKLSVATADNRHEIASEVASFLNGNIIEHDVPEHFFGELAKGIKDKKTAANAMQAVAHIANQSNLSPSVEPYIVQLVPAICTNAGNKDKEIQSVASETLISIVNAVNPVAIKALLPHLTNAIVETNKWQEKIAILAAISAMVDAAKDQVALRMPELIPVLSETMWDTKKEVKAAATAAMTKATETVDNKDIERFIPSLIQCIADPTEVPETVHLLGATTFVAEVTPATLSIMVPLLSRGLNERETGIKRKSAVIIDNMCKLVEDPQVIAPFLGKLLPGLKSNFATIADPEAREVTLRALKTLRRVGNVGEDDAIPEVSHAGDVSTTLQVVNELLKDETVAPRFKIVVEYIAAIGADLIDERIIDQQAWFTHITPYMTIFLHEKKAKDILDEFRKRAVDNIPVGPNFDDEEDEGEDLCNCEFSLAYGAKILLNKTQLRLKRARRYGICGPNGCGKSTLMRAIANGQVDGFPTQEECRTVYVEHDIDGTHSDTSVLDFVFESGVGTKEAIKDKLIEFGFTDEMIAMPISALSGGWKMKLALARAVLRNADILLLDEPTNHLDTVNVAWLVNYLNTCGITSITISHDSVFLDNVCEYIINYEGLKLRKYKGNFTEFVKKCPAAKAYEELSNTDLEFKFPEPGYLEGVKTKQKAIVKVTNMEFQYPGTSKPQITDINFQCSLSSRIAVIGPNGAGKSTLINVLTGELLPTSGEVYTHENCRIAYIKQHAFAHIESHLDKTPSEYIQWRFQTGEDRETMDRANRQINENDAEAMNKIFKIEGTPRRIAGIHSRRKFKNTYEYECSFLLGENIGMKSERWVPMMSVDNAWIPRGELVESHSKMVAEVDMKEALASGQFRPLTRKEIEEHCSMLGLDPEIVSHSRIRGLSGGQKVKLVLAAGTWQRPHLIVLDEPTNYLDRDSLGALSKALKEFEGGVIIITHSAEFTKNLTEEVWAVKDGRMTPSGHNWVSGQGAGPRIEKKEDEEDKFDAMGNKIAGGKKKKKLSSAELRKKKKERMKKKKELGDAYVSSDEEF
Experiment: cryo-EM structure of native eEF3-80S complex ([…] Å)
Details: ABC1 and ABC2 nucleotide-binding sites; complex eluted with 1 mM ADPNP, pH 7.4, 10 mM Mg(OAc)2; density assigned by authors as ATP (or ADPNP), identity not resolved

SMILES: Nc1ncnc2c1ncn2[C@@H]1O[C@H](COP(=O)(O)OP(=O)(O)NP(=O)(O)O)[C@@H](O)[C@H]1O [ADPNP]
- cryo-EM structure of native eEF3-80S complex (3.3 Å): electron density consistent with ATP (or ADPNP) was observed in the active sites of ABC1
